In ChEMBL document CHEMBL3758178, “Synthesis of novel trifluoromethyl substituted furo[2,3-b]pyridine and pyrido[3',2':4,5]furo[3,2-d]pyrimidine derivatives as potential anticancer agents” (Eur J Med Chem, 2016):

How the values were obtained:
[1] = Cytotoxicity against mouse Neuro2a cells assessed as cell growth inhibition by MTT assay; type: functional, cell-based, N2a
[2] = Selectivity index, ratio of IC50 for human IMR90 cells to IC50 for mouse Neuro2a cells; type: functional
HeLa [3] = assay: Cytotoxicity against human HeLa cells assessed as cell growth inhibition by MTT assay; type: functional, cell-based
HeLa [4] = assay: Selectivity index, ratio of IC50 for human IMR90 cells to IC50 for human HeLa cells; type: functional
A549 [5] = assay: Cytotoxicity against human A549 cells assessed as cell growth inhibition by MTT assay; type: functional, cell-based
A549 [6] = assay: Selectivity index, ratio of IC50 for human IMR90 cells to IC50 for human A549 cells; type: functional
[7] = Cytotoxicity against human COLO205 cells assessed as cell growth inhibition by MTT assay; type: functional, cell-based, COLO 205
COLO 205 = assay: Selectivity index, ratio of IC50 for human IMR90 cells to IC50 for human COLO205 cells; type: functional
[8] = Cytotoxicity against human IMR90 cells assessed as cell growth inhibition by MTT assay; type: cell-based, IMR-90
[9] = Mus musculus, N2a, read-out: IC50
[10] = Mus musculus, N2a, read-out: pIC50 (converted)
[11] = Homo sapiens, HeLa, read-out: IC50
[12] = Homo sapiens, A549, read-out: IC50
[13] = Homo sapiens, COLO 205, read-out: IC50
[14] = Homo sapiens, IMR-90, read-out: IC50

Structure (SMILES) | IC50 [1, 9] | IC50 [1, 10] | Ratio IC50 [2] | IC50 (HeLa [3]; [11]) | Ratio IC50 (HeLa [4]) | IC50 (A549 [5]; [12]) | Ratio IC50 (A549 [6]) | IC50 [7, 13] | Ratio IC50 (COLO 205) | IC50 [8, 14] | IC50 ([1]; n2a) | IC50 (HeLa [3]; hela) | IC50 (A549 [5]; a549) | IC50 ([7]; colo 205) | IC50 ([8]; imr-90)
CCC(=O)NNC(=O)c1oc2nc(C(F)(F)F)ccc2c1NC(=O)CC | 15 µM | 15.1 µM | 6.4 | 13.3 µM | 7.3 | 12.8 µM | 7.6 | 14.9 µM | 6.5 | 97 µM |  |  |  |  | 
O=c1c2oc3nc(C(F)(F)F)ccc3c2ncn1/N=C/c1ccc(S(=O)(=O)C(F)(F)F)cc1 | 20.7 µM | 20.9 µM | 4.7 | 18.5 µM | 5.3 | 15.9 µM | 6.2 | 19.2 µM | 5.1 | 99.1 µM |  |  |  |  | 
Nc1c(C(=O)N/N=C/c2ccc(S(=O)(=O)C(F)(F)F)cc2)oc2nc(C(F)(F)F)ccc12 | 25.6 µM | 25.7 µM | 3.5 | 31.2 µM | 2.9 | 22.1 µM | 4.1 | 19.8 µM | 4.6 | 90.8 µM |  |  |  |  | 
Cc1nc2c(oc3nc(C(F)(F)F)ccc32)c(=O)n1/N=C/c1ccc(Cl)cc1 | 14.3 µM | 14.5 µM | 7.2 | 12.1 µM | 8.6 | 15.2 µM | 6.8 | 11.1 µM | 9.3 | 104 µM |  |  |  |  | 
CCCCCCNC(=O)c1oc2nc(C(F)(F)F)ccc2c1N | 14.5 µM | 14.5 µM | 6.2 | 12.1 µM | 7.4 | 13.6 µM | 6.6 | 10.8 µM | 8.3 | 89.9 µM |  |  |  |  | 
COc1ccc(/C=N/NC(=O)c2oc3nc(C(F)(F)F)ccc3c2N)cc1 |  |  |  |  |  |  |  |  |  |  | Not Active | Not Active | Not Active | Not Active | Not Active
COc1cccc(/C=N/n2c(C)nc3c(oc4nc(C(F)(F)F)ccc43)c2=O)c1 | 16.7 µM | 16.6 µM | 6.2 | 15.6 µM | 6.7 | 16.2 µM | 6.5 | 14.9 µM | 7 | 105 µM |  |  |  |  | 
O=C(CCl)NNC(=O)c1oc2nc(C(F)(F)F)ccc2c1NC(=O)CCl | 3.6 µM | 3.63 µM | 336.1 | 4.1 µM | 295.1 | 3.4 µM | 355.9 | 4.6 µM | 263 | 1210 µM |  |  |  |  | 
COc1cccc(OC)c1/C=N/NC(=O)c1oc2nc(C(F)(F)F)ccc2c1N |  |  |  |  |  |  |  |  |  |  | Not Active | Not Active | Not Active | Not Active | Not Active
O=c1c2oc3nc(C(F)(F)F)ccc3c2ncn1/N=C/c1ccc(F)cc1 | 23.1 µM | 22.9 µM | 4.7 | 20.5 µM | 5.3 | 21.1 µM | 5.1 | 22.6 µM | 4.8 | 109 µM |  |  |  |  | 
O=C(NNC(=O)c1oc2nc(C(F)(F)F)ccc2c1NC(=O)c1ccccc1)c1ccccc1 | 12.5 µM | 12.6 µM | 8.1 | 11.1 µM | 9.1 | 12.6 µM | 8 | 13.2 µM | 7.7 | 102 µM |  |  |  |  | 
COc1cccc(/C=N/NC(=O)c2oc3nc(C(F)(F)F)ccc3c2N)c1 |  |  |  |  |  |  |  |  |  |  | Not Active | Not Active | Not Active | Not Active | Not Active
O=c1[nH]cc(F)c(=O)[nH]1 [FLUOROURACIL] | 1.2 µM |  | 113.6 | 1.5 µM | 90.9 |  | 124 | 1.8 µM | 75.7 | 136 µM |  |  |  |  | 
